In article PMC9412374, “Design, Synthesis, and Development of pyrazolo[1,5-a]pyrimidine Derivatives as a Novel Series of Selective PI3Kδ Inhibitors: Part I—Indole Derivatives” (Pharmaceuticals, 2022):
Converted amounts (≈) assume the structure as drawn. Read-outs that look alike come from different tables or passages of the source.

How the values were obtained:
[1] = Metabolic phase I stability in human microsomes; format: in vitro ADME; conditions: human microsomes 0.5 mg/mL, NADPH, 37 °C; for half-life at 1 μM: read-out: HLM t1/2
Description: (§1) Assessment of metabolic phase I stability in mouse (CD-1™) and human microsomes (Thermo-Fisher Scientific, Waltham, MA, USA) was performed on 96-well non-binding plates (Greiner, Frickenhausen, Germany) at 1 μM concentration for verapamil (positive control) and donepezil (negative control) and tested compounds. Unless otherwise stated, all chemicals and materials were ordered from Merck Life Science (Palo Alto, CA, USA). Each biological replicate was prepared in triplicates. Briefly, mixtures were incubated in 100 mM potassium phosphate buffer with microsomes (0.5 mg/mL) and NADPH (1–1.2 mM) on a plate shaker (500 rpm) in the dark at 37 °C. A 4× solution of NADPH, a cofactor for metabolic enzymes, was prepared directly prior to the experiment by reducing NADP with G6P dehydrogenase (13.2 mM MgCl2, 13.2 mM G6P, 5.2 mM NADP, 3.2 U/mL G6P dehydrogenase, 20 min at 30 °C, 500 rpm). The negative control contained buffer instead of NADPH solution. Samples were collected at 0, 10, 20, and 40 min or 0 and 40 min for the negative and double negative controls. The reaction was stopped by protein precipitation in 2 volumes of ice-cold MeOH with 200 nM imipramine (an internal standard for LC-MS analysis). Then, the extract was mixed (1 min, 1000 rpm), filtered through a 0.22 μm filter on a 96-well plate vacuum manifold, and subjected to LC-MS analysis.

CD19 cells = assay: B cells proliferation by flow cytometry (CFSE); format: cell-based; conditions: B-cell, 96 h, CD19 cells from PBMC, activated by αIgM and ODN2006, four days
Description: CD19 cells were isolated from PBMC using magnetic beads (Stem Cell, Cambridge, MA, USA) and then labeled with 2 µM CFSE (Invitrogen, Waltham, MA, USA).
After four days, cells were stained with LIVE/DEAD™ kit (Invitrogen, Waltham, MA, USA). Samples were acquired using Attune NxT Flow Cytometer (Invitrogen, Waltham, MA, USA) and analyzed using FlowJo software. Each biological assay was performed with cells isolated from a different donor. The presented results constitute the average value of the percentage of proliferating cells from 3 independent experiments.

PI3Kβ = target: T1, PI3Kβ (Homo sapiens, UniProt P42338); assay: In vitro kinase inhibition assay for PI3K (ADP-Glo), PI3Kβ; format: biochemical; conditions: for Fold Selectivity β/δ: ratio of IC50 PI3Kβ to IC50 PI3Kδ
T1 construct: purchased Merck Millipore
Description: (§2) Tested compounds were dissolved in 100% DMSO, and obtained solutions were serially diluted in 1× reaction buffer. The recombinant kinase solution was diluted in a reaction mixture comprising 5× reaction buffer, respective compound solution (1 mM sodium diacetate 4,5-bisphosphate phosphatidylinositol (PIP2) solution in 40 mM Tris buffer), and water. In a 96-wells plate, 5 μL of compound solutions and 15 μL of the kinase solution in the reaction mixture were added per well. To initiate the interaction of chemical compounds to be tested with the enzyme, the plate was incubated for 10 min at a suitable temperature in a plate thermostat with orbital shaking at 600 rpm. Negative control wells contained all the above reagents except tested compound and kinase, and positive control wells contained all the above reagents except tested compounds. […] Subsequently, the plate was incubated for 1 h at 25 or 30 °C (depending on the PI3K isoform tested) in a plate thermostat with orbital shaking of the plate contents at 600 rpm. The reaction conditions are combined in the table below (Table 6).
(§3) Detection of ADP formed in the enzymatic reaction was then performed using ADP-Glo Kinase Assay™ (Promega, Madison, WI, USA). To the wells of a 96-well plate, 25 μL of ADP-Glo Reagent™ was added, and the plate was incubated for 40 min at 25 °C in a plate thermostat with orbital shaking at 600 rpm. Then 50 μL of Kinase Detection Reagent were added to each well, and the plate was incubated for 40 min at 25 °C in a plate thermostat with orbital shaking at 600 rpm. Once the incubation was complete, the luminescence intensity was measured using a Victor Light luminometer (Perkin Elmer, Inc., Waltham, MA, USA). IC50 values were determined based on luminescence intensity measured in wells containing tested compounds at different concentrations in relation to control wells. […] Each compound was tested at least in quadruplicates (4 wells) on two 96-well plates utilizing at least 4 wells for each control.

[2] = Kinetic solubility, shake-flask protocol; format: physicochemical; conditions: aqueous buffer, kinetic from dmso stock, pH 7.4 phosphate-buffered saline, 25 °C, 500 µM compound
Description: Kinetic solubility was determined by the shake-flask protocol. Appropriate compounds (500 µM) were incubated in an aqueous buffer (0.1 M phosphate-buffered saline pH 7.4) at 25 °C with stirring at 500 rpm. The samples were taken at the start time and after 24 h of incubation, filtered through 0.22 µm filters, and diluted with two volumes of acetonitrile. UHPLC-UV/Vis determined sample concentrations. A calibration curve was prepared to quality the compound’s contents in the test solution.

PI3Kγ = target: T2, PI3Kγ (Homo sapiens, UniProt P48736); assay: In vitro kinase inhibition assay for PI3K (ADP-Glo), PI3Kγ; format: biochemical; conditions: for Fold Selectivity γ/δ: ratio of IC50 PI3Kγ to IC50 PI3Kδ
T2 construct: purchased Merck Millipore
Description: as §2, §3

[3] = Metabolic phase I stability in mouse microsomes; format: in vitro ADME; conditions: NADPH, 37 °C; for microsomal CLint at 1 μM: heading: MLM Cl; for half-life at 1 μM: read-out: MLM t1/2
Description: as §1

PI3Kα = target: T3, PI3Kα (Homo sapiens, UniProt P42336); assay: In vitro kinase inhibition assay for PI3K (ADP-Glo), PI3Kα; format: biochemical; conditions: for IC50: IC50 PI3K α, recombinant kinase, ADP-Glo, mean of two independent experiments; for Fold Selectivity α/δ: ratio of IC50 PI3Kα to IC50 PI3Kδ
T3 construct: purchased Carna Biosciences
Description: Tested compounds were dissolved in 100% DMSO, and obtained solutions were serially diluted in 1× reaction buffer. The recombinant kinase solution was diluted in a reaction mixture comprising 5× reaction buffer, respective compound solution (1 mM sodium diacetate 4,5-bisphosphate phosphatidylinositol (PIP2) solution in 40 mM Tris buffer), and water. In a 96-wells plate, 5 μL of compound solutions and 15 μL of the kinase solution in the reaction mixture were added per well. To initiate the interaction of chemical compounds to be tested with the enzyme, the plate was incubated for 10 min at a suitable temperature in a plate thermostat with orbital shaking at 600 rpm. Negative control wells contained all the above reagents except tested compound and kinase, and positive control wells contained all the above reagents except tested compounds. The enzymatic reaction was initiated by adding 5 μL of 150 μM ATP solution. Subsequently, the plate was incubated for 1 h at 25 or 30 °C (depending on the PI3K isoform tested) in a plate thermostat with orbital shaking of the plate contents at 600 rpm. The reaction conditions are combined in the table below (Table 6).
Detection of ADP formed in the enzymatic reaction was then performed using ADP-Glo Kinase Assay™ (Promega, Madison, WI, USA). To the wells of a 96-well plate, 25 μL of ADP-Glo Reagent™ was added, and the plate was incubated for 40 min at 25 °C in a plate thermostat with orbital shaking at 600 rpm. Then 50 μL of Kinase Detection Reagent were added to each well, and the plate was incubated for 40 min at 25 °C in a plate thermostat with orbital shaking at 600 rpm. Once the incubation was complete, the luminescence intensity was measured using a Victor Light luminometer (Perkin Elmer, Inc., Waltham, MA, USA). IC50 values were determined based on luminescence intensity measured in wells containing tested compounds at different concentrations in relation to control wells. These values were calculated with Graph Pad 5.03 software by fitting the curve using non-linear regression. Each compound was tested at least in quadruplicates (4 wells) on two 96-well plates utilizing at least 4 wells for each control. Averaged results of inhibition activity respective to specific isoforms of PI3K kinases for tested compounds are presented as IC50 values in Table 1, Table 2, Table 3 and Table 4.

PI3Kδ = target: T4, PI3Kδ (Homo sapiens, UniProt O00329); assay: In vitro kinase inhibition assay for PI3K (ADP-Glo), PI3Kδ; format: biochemical; conditions: recombinant kinase, mean of two independent experiments
T4 construct: purchased Merck Millipore
Description: as §2, §3

[4] = CD-1, liver microsomes, mouse microsomes 0.5 mg/mL

T1 sequence (P42338 whole entry): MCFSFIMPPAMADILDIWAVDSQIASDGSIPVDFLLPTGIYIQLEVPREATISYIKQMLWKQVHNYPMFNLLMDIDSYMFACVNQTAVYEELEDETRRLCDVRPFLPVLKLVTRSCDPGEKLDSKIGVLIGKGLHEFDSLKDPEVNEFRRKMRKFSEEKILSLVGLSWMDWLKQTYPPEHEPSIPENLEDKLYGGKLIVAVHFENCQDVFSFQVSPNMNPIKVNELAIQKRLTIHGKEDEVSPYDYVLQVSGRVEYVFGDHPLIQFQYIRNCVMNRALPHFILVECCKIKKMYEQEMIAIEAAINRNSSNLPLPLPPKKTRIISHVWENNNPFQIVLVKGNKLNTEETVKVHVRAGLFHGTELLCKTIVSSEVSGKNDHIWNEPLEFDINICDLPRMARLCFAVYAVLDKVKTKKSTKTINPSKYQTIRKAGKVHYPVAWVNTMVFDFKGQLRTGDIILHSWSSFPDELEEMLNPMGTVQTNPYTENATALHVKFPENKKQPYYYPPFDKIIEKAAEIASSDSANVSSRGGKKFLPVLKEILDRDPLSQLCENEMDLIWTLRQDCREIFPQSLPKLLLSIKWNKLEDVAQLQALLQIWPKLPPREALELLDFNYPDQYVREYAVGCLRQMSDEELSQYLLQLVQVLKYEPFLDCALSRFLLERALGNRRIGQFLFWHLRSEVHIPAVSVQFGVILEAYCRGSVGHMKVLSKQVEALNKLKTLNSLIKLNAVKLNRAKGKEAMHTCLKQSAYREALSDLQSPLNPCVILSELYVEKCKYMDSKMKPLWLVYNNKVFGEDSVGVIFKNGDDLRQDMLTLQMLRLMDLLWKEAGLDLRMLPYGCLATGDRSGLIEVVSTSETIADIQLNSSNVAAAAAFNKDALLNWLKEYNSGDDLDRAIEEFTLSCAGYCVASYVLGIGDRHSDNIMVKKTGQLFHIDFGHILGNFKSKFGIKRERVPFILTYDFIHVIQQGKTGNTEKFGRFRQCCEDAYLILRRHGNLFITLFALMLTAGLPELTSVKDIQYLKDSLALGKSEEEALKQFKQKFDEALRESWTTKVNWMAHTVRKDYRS
T1 sequence (P27986 whole entry, further chain): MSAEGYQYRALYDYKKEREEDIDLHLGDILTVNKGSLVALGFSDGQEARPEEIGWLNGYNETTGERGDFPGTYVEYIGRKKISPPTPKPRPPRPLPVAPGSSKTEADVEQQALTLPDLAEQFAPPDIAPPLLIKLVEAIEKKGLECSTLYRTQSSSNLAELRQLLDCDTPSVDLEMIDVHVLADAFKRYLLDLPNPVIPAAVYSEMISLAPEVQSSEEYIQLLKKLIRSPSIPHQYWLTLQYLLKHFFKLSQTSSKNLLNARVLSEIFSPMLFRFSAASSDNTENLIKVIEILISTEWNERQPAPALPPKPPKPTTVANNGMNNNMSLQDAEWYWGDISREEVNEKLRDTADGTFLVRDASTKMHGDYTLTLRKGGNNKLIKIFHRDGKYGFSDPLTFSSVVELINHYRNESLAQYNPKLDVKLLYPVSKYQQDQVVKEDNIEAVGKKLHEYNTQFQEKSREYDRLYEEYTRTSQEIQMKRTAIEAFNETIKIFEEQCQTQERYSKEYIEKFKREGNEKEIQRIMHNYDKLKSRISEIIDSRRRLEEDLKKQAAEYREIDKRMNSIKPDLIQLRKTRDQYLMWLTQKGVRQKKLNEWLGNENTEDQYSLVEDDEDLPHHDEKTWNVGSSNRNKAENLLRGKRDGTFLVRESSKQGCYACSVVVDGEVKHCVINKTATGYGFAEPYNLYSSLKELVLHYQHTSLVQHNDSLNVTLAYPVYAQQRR
T2 sequence (P48736 whole entry): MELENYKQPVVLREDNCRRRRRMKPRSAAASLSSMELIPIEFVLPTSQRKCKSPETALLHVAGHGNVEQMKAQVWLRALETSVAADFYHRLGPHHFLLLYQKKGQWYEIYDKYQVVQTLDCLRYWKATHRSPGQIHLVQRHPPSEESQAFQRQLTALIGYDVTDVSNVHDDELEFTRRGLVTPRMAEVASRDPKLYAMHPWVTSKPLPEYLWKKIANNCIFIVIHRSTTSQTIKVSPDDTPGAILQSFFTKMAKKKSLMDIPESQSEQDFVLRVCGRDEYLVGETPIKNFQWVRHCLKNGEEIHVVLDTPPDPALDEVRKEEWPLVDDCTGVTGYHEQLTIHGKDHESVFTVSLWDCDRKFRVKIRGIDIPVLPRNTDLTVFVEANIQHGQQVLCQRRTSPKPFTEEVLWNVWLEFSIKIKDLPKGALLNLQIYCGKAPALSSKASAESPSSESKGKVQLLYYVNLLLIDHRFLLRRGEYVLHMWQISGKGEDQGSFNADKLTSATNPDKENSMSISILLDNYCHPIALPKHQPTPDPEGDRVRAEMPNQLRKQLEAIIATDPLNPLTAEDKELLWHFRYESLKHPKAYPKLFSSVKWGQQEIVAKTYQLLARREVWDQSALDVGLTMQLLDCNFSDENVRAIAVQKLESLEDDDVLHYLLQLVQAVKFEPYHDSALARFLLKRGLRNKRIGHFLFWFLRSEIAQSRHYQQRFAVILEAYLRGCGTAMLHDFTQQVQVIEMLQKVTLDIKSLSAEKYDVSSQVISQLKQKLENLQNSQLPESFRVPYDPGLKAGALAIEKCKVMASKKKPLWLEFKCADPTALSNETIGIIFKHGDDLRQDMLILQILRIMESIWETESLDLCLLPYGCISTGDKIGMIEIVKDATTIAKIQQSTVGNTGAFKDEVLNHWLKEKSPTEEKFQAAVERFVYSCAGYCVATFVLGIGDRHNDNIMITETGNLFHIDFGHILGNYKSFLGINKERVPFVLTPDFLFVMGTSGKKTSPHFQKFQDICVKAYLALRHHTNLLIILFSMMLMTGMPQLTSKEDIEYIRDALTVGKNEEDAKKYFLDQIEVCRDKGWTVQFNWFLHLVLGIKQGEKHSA
T3 sequence (P42336 whole entry): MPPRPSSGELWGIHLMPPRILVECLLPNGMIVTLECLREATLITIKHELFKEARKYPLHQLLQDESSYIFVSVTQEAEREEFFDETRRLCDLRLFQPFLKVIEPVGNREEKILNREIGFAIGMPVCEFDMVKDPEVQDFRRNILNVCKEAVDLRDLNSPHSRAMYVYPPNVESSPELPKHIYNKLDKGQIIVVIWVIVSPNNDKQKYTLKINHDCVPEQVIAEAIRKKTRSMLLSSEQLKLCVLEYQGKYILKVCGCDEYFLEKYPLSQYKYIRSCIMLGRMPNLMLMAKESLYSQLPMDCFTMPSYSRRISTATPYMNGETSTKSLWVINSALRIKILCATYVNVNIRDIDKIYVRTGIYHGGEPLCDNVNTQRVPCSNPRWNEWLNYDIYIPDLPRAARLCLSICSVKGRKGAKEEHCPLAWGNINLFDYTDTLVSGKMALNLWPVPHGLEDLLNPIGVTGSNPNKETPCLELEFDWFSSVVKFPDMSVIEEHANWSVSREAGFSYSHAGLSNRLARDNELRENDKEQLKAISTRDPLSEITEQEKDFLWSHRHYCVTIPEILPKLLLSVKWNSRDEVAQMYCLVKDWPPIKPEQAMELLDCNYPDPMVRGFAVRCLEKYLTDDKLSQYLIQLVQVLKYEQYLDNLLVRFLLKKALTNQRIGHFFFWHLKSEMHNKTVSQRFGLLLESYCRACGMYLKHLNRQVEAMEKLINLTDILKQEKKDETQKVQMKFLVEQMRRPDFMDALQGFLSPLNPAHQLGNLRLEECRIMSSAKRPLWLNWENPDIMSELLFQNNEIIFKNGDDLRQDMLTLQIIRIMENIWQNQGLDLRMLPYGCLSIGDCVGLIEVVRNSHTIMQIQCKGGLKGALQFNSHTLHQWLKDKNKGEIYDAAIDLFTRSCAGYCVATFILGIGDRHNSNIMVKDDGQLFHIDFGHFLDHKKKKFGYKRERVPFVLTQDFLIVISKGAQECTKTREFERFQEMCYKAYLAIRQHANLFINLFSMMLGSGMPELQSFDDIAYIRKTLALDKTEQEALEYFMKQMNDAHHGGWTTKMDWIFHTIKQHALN
T3 sequence (P27986 whole entry partner): as the sequence (P27986 whole entry, further chain) above
T4 sequence (P27986 whole entry): as the sequence (P27986 whole entry, further chain) above
T4 sequence (O00329 whole entry): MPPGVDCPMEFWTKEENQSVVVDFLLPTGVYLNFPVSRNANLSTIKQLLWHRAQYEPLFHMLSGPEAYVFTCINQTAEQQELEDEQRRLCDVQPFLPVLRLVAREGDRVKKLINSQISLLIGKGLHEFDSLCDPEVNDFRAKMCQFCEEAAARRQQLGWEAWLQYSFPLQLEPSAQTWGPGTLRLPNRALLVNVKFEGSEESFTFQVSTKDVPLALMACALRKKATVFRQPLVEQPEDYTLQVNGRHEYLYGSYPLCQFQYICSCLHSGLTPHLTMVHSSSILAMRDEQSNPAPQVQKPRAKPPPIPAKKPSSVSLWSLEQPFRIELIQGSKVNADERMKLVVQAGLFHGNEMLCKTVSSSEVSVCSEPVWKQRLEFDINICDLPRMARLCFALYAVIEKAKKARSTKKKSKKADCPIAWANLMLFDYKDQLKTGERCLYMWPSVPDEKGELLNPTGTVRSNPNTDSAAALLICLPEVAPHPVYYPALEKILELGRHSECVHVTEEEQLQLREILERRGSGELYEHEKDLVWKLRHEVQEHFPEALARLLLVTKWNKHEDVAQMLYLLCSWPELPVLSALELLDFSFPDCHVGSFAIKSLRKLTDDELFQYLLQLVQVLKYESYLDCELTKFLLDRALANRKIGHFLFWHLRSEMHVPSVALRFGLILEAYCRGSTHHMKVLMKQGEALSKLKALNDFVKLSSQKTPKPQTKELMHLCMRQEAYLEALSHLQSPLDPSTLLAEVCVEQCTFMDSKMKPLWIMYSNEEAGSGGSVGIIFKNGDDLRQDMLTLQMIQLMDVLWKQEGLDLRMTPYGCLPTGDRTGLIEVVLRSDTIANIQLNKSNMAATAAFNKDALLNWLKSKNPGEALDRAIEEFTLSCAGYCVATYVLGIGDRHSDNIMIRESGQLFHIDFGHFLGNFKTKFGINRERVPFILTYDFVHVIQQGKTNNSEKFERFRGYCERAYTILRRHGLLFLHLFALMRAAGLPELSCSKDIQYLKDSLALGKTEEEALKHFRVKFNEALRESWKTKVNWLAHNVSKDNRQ

Work on CC(C)(C)N1CCN(Cc2cc3nc(-c4cncc5[nH]ccc45)cc(N4CCOCC4)n3n2)CC1 [Compound 54, 2-((4-tert-butylpiperazin-1-yl)methyl)-5-(1H-pyrrolo [2,3-c]pyridin-4-yl)-7-(morpholin-4-yl)pyrazolo[1,5-a]pyrimidine] yielded a half-life at 1 μM [1] of 6.17 h, an IC50 (CD19 cells) of 19 nM and an IC50 (PI3Kβ) of 21600 nM. The “Fold Selectivity β/δ” value (PI3Kβ) was 7714, the solubility kinetic at 24 h [2] was over 500 µM and the IC50 (PI3Kγ) was 34400 nM. For the same compound, the “Fold Selectivity γ/δ” value (PI3Kγ) was 12,286, the microsomal CLint at 1 μM ([3]; CD-1, microsomes, mouse microsomes 0.5 mg/mL) was 7 µL/min/mg and the half-life at 1 μM ([3]; CD-1, mouse microsomes 0.5 mg/mL) was 3.3 h. For the same compound, the IC50 (PI3Kα) was 2670 nM, the “Fold Selectivity α/δ” value (PI3Kα) was 954 and the IC50 (PI3Kδ; IC50 PI3K δ) was 2.8 nM.
For CC(C)(C)N1CCN(Cc2cc3nc(-c4cccc5[nH]ccc45)cc(N4CCOCC4)n3n2)CC1 [Compound 37, 2-((4-tert-butylpiperazin-1-yl)methyl)-5-(1H-indol-4-yl)-7-(morpholin-4-yl)pyrazolo[1,5-a]pyrimidine], the microsomal CLint at 1 μM ([1]; liver microsomes, heading: HLM Cl) was 22.8 µL/min/mg, the half-life at 1 μM ([1]; liver microsomes) was 1.27 h and the IC50 (CD19 cells) was 20 nM. The “Fold Selectivity β/δ” value (PI3Kβ) was 829, the IC50 (PI3Kβ; recombinant kinase, ADP-Glo, mean of two independent experiments, read-out: IC50 PI3K β) was 5470 nM and the solubility kinetic at 24 h [2] was 444 µM (≈ 210 µg/mL). The “Fold Selectivity γ/δ” value (PI3Kγ) was over 9091, the IC50 (PI3Kγ; recombinant kinase, ADP-Glo, mean of two independent experiments, read-out: IC50 PI3K γ) was over 60000 nM and the microsomal CLint at 1 μM [3, 4] was 13.7 µL/min/mg. The half-life at 1 μM [3, 4] was 2.1 h, the IC50 (PI3Kα) was 12500 nM and the “Fold Selectivity α/δ” value (PI3Kα) was 1889. For the same compound, the IC50 (PI3Kδ; read-out: IC50 PI3K δ) was 6.6 nM.
